In patent publication US9044388B2, “Dry eye treatment” (Ocular Research of Boston, Inc., priority 2005, dated 2015):

What was measured:
ocular surface = assay: Evaluation of comfort on the eye (sensation after one drop); assay type: in vivo, human; settings: even in concentrations ≦0.10%
Method: The vehicle used for all formulations was Unisol 4, a buffered saline solution marketed by Alcon Laboratories, Fort Worth, Tex. Unisol 4 had previously been studied and found to be the most comfortable normal saline product for use on the ocular surface. It was therefore used as a vehicle for the test formulations, and was also used as a control. A drop of each of the 5 test formulations was placed on to the ocular surfaces of each subject, utilizing a 15 ml dropper container that delivered a drop of 40 μl to the ocular surface. […] The results obtained with 6 subjects, all of whom evaluated each of the test formulation on two different days are summarized in Table 3.

eye [1] = settings: in vivo; cited from earlier work
eye [2] = assay: Subjective sensation / stinging of emulsions and their surfactants on the eye; assay type: in vivo, human; settings: higher concentration as sole primary surfactant
Method: The subjective sensation realized with both formulations was evaluated as comfortable, and without any form of adverse sensation.

[3] = result in words; cited from earlier work

Molecule: sorbitan monolaurate [Span 20]
- sting when applied to the eye and ocular surfaces (ocular surface): sting

Molecule: polyoxyethylene (40) stearate [Myrj-52]
- ocular discomfort on increasing the concentration (eye [1]): significant stinging

Molecule: CCCCCCCC/C=C\CCCCCCCC(=O)OCCOCC(OCCO)C1OCC(OCCO)C1OCCO (stereo not shown) [Polysorbate-80]
- effect of higher surfactant concentration on the eye (eye [2]): led to stinging on the eye

Molecule: CCCCCCCCCCCCCCCCCC(=O)OCC(O)CO (stereo not shown) [GMS, glycerol monostearate]
- solubility [3]: oil soluble
